Test results reported in patent US20160101072A1, “Therapeutic uses of enzyme inhibitors” (Proximagen Limited, priority 2013, published 2016).
Marks after values point to notes of the source that are not given here.

Experiments:
[1] = test system: Lgals3 mRNA; experiment: mRNA quantification (RT PCR) of Lgals3 in muscles of mdx mice; format: in vivo, mouse; settings: for Lgals3 mRNA level: mdx mice muscle, GAPDH as normalizer; for effect on the level of Lgals3 mRNA: treatment alone, mdx mouse muscle
Description: (§1) A total of a ninety C57BU10ScSn-Dmdmdx/J male mice, 3 weeks of age (+/-3days), were transferred to the in vivo research laboratory in Bar Harbor, Me. Additional ten […] male mice 3 weeks of age (+/-3 days) were also transferred and served as a wild-type control group. The mice were ear notched for identification and housed in ventilated polysulfone cages with HEPA filtered air at a density of 3-4 mice per cage. The animal room was lit entirely with artificial fluorescent lighting on controlled 12 hour light/dark cycle (6 a.m. to 6 p.m. light). […] The animal room was set for 15 air exchanges per hour. Filtered tap water acidified to a pH of 2.8 to 3.2 was provided ad libitum. […] Prior to study initiation, mice were acclimated for 3 days. Mice were tested for grip strength and in the open field at ages 25 and 26 days, and drug regimen was initiated at age 27 days. Mice were monitored twice weekly for clinical observations and body weights. […] 24 hours after the second open field tests, blood was collected by retro-orbital bleeding, and mice were humanely euthanized by CO2 asphyxiation. One triceps surae was collected fresh and processed for immune cell sorting, one tibialis anterior was preserved in RNALater for RNA extraction, one whole hind limb and the diaphragm were fixed in 2% paraformaldehyde overnight at 4° C. for paraffin embedding and histology stains. Total RNAs were extracted with a modification of the Trizol method, reverse transcribed, and mRNAs of TGFβ, and the following inflammation markers were quantified by the SYBR green method with GAPDH as a normalizer: […]

[2] = test system: TNF mRNA; experiment: mRNA quantification (RT PCR) of TNF in muscles of mdx mice; format: in vivo, mouse; settings: for TNF mRNA level: mdx mice muscle, GAPDH as normalizer; for effect on the level of TNF mRNA: treatment alone, mdx mouse muscle
Description: as §1

[3] = test system: CD11b mRNA; experiment: mRNA quantification (RT PCR) of CD11b in muscles of mdx mice; format: in vivo, mouse; settings: for CD11b mRNA level: mdx mice muscle, GAPDH as normalizer
Description: as §1

[4] = test system: CD11b+ myeloid cells; experiment: Cell sorting: recruitment of CD11b+ myeloid cells into muscles of mdx mice; format: in vivo, mouse; settings: mdx mice muscle; for % change compared to vehicle (CD11b+ myeloid cells) / % of viable cells (CD11b+ myeloid cells): 4 weeks
Description: (§2) In this example, labelled antibodies were used to assess infiltration of inflammatory myeloid and lymphoid cells into muscles of mdx mice following treatment of the mice with different doses of the glucocorticoid prednisolone, and the VAP-1 inhibitors carbidopa and benserazide. CD11b is a transmembrane glycoprotein which is expressed on the surface of granulocytes (including neutrophils and eosinophils), monocytes, NK cells, dendritic cells, tissue macrophages and subsets of T and B cells. Labelled antibody to CD11b was used to assess infiltration of inflammatory myeloid cells into muscles of mdx mice. Labelled antibody to Ly6C was used to assess infiltration of pro- and anti-inflammatory monocytes into muscles of mdx mice. Labelled antibody to CD4 and CD8a antigen was used to assess infiltration of Th cells (CD4^+CD8^-) and double negative (CD4^-CD8^-) T cells into muscles of mdx mice. A total of a ninety C57BU10ScSn-Dmdmdx/J male mice, 3 weeks of age (+/-3days), were transferred to the in vivo research laboratory in Bar Harbor, Me. Additional ten […] male mice 3 weeks of age (+/-3 days) were also transferred and served as a wild-type control group. The mice were ear notched for identification and housed in ventilated polysulfone cages with HEPA filtered air at a density of 3-4 mice per cage. The animal room was lit entirely with artificial fluorescent lighting on controlled 12 hour light/dark cycle (6 a.m. to 6 p.m. light). […] The animal room was set for 15 air exchanges per hour. Filtered tap water acidified to a pH of 2.8 to 3.2 was provided ad libitum. […] Prior to study initiation, mice were acclimated for 3 days. Mice were tested for grip strength and in the open field at ages 25 and 26 days, and drug regimen was initiated at age 27 days. Mice were monitored twice weekly for clinical observations and body weights. […] 24 hours after the second open field tests, blood was collected by retro-orbital bleeding, and mice were humanely euthanized by CO2 asphyxiation. One triceps surae was collected fresh and processed for immune cell sorting, one tibialis anterior was preserved in RNALater for RNA extraction, one whole hind limb and the diaphragm were fixed in 2% paraformaldehyde overnight at 4° C. for paraffin embedding and histology stains. For immune cell sorting, muscle samples were enzymatically and mechanically dissociated following manufacturer instructions (Skeletal Muscle Dissociation KitCatalog no. 130-098-305, Miltenyi Biotec). Cells were stained with the following antibodies: [table] Stained cells were analyzed on a BD LSR II cytometer and counts of different populations were expressed in percentage of the number of live cells counted.

[5] = test system: CD48 mRNA; experiment: mRNA quantification (RT PCR) of CD48 in muscles of mdx mice; format: in vivo, mouse; settings: for CD48 mRNA level: mdx mice muscle, GAPDH as normalizer; for effect on the level of CD48 mRNA: treatment alone, mdx mouse muscle
Description: as §1

[6] = test system: Ly6C1 mRNA; experiment: mRNA quantification (RT PCR) of Ly6C1 in muscles of mdx mice; format: in vivo, mouse; settings: mdx mice muscle
Description: as §1

[7] = test system: TGFβ mRNA; experiment: mRNA quantification (RT PCR) of pro-fibrotic growth factor TGFβ in muscles of mdx mice; format: in vivo, mouse; settings: for % change compared to vehicle (TGFβ mRNA) / TGFβ mRNA: mdx mice muscle; for TGFβ mRNA: GAPDH as normalizer
Description: as §1

[8] = test system: CD53 mRNA; experiment: mRNA quantification (RT PCR) of CD53 in muscles of mdx mice; format: in vivo, mouse; settings: for CD53 mRNA level: mdx mice muscle, GAPDH as normalizer
Description: as §1

[9] = test system: IL-6 mRNA; experiment: mRNA quantification (RT PCR) of IL-6 in muscles of mdx mice; format: in vivo, mouse; settings: mdx mice muscle
Description: as §1

[10] = test system: CD11b+Ly6Clow anti-fibrotic myeloid cells (Ly6C- monocytes); experiment: Cell sorting: recruitment of CD11b+Ly6Clow anti-fibrotic myeloid cells into muscles of mdx mice; format: in vivo, mouse; settings: mdx mice muscle; for % change compared to vehicle (CD11b+Ly6Clow anti-fibrotic myeloid cells) / % of viable cells (CD11b+Ly6Clow anti-fibrotic myeloid cells): 4 weeks
Description: as §2

[11] = test system: Mpeg1 mRNA; experiment: mRNA quantification (RT PCR) of Mpeg1 in muscles of mdx mice; format: in vivo, mouse; settings: mdx mice muscle
Description: as §1

[12] = test system: CD11b+Ly6Chigh profibrotic myeloid cells (Ly6C+ monocytes); experiment: Cell sorting: recruitment of CD11b+Ly6Chigh profibrotic myeloid cells into muscles of mdx mice; format: in vivo, mouse; settings: mdx mice muscle; for % change compared to vehicle (CD11b+Ly6Chigh profibrotic myeloid cells) / % of viable cells (CD11b+Ly6Chigh profibrotic myeloid cells): 4 weeks
Description: as §2

[13] = test system: CD11b+Ly6Chigh profibrotic : CD11b+Ly6Clow anti-fibrotic myeloid cells; experiment: Ratio of profibrotic to anti-fibrotic myeloid cells in mdx mouse muscle; format: in vivo; settings: both doses
Description: In this example, labelled antibodies were used to assess infiltration of inflammatory myeloid and lymphoid cells into muscles of mdx mice following treatment of the mice with different doses of the glucocorticoid prednisolone, and the VAP-1 inhibitors carbidopa and benserazide. […] Labelled antibody to CD11b was used to assess infiltration of inflammatory myeloid cells into muscles of mdx mice. Labelled antibody to Ly6C was used to assess infiltration of pro- and anti-inflammatory monocytes into muscles of mdx mice. Labelled antibody to CD4 and CD8a antigen was used to assess infiltration of Th cells (CD4^+CD8^−) and double negative (CD4^−CD8^−) T cells into muscles of mdx mice.
A total of a ninety C57BU10ScSn-Dmdmdx/J male mice, 3 weeks of age (+/−3days), were transferred to the in vivo research laboratory in Bar Harbor, Me. Additional ten C57BU10ScSnJ male mice 3 weeks of age (+/−3 days) were also transferred and served as a wild-type control group. The mice were ear notched for identification and housed in ventilated polysulfone cages with HEPA filtered air at a density of 3-4 mice per cage. […]

[14] = test system: lymphoid CD4+CD8- T cells; experiment: Cell sorting: recruitment of lymphoid CD4+CD8- T cells into muscles of mdx mice; format: in vivo, mouse; settings: mdx mice muscle
Description: as §2

[15] = test system: lymphoid CD4-CD8- (double negative, DN) T cells; experiment: Cell sorting: recruitment of lymphoid CD4-CD8- (double negative, DN) T cells into muscles of mdx mice; format: in vivo, mouse; settings: mdx mice muscle
Description: as §2

[16] = treatment alone, mdx mouse muscle
[17] = mdx mouse muscle, compared to vehicle
[18] = 100 mg/kg po twice/day, 4 weeks
[19] = doses as in the table (carbidopa 100, benserazide 20 mg/kg po twice/day; prednisolone 1 mg/kg ip once/day)

Compound: C[C@]12C=CC(=O)C=C1CC[C@@H]1[C@@H]2[C@@H](O)C[C@@]2(C)[C@H]1CC[C@]2(O)C(=O)CO [Prednisolone, prednisolone]
- Lgals3 mRNA level ([1]; 0.2 mg/kg ip once/day): 1.2
- effect on the level of Lgals3 mRNA [1]: no significant effect
- TNF mRNA level ([2]; 0.2 mg/kg ip once/day): 0.92
- effect on the level of TNF mRNA [2]: No significant effect
- CD11b mRNA level ([3]; 0.2 mg/kg ip once/day): 1.42
- effect on the level of CD11b mRNA [3, 16]: not significantly affected
- % change compared to vehicle (CD11b+ myeloid cells) ([4]; 0.2 mg/kg ip once/day): +14.8%
- % of viable cells (CD11b+ myeloid cells) ([4]; 0.2 mg/kg ip once/day): 41.8%
- % change compared to vehicle (CD11b+ myeloid cells) ([4]; 1 mg/kg ip once/day): +20.9%
- % of viable cells (CD11b+ myeloid cells) ([4]; 1 mg/kg ip once/day): 44%
- CD48 mRNA level ([5]; 0.2 mg/kg ip once/day): 1
- effect on the level of CD48 mRNA [5]: no significant effect
- effect on Ly6C1 mRNA level [6]: No effects
- % change compared to vehicle (TGFβ mRNA) ([7]; 0.2 mg/kg ip once/day): 48.8%
- TGFβ mRNA ([7]; 0.2 mg/kg ip once/day): 1.80
- effect on the level of TGFβ mRNA ([7]; prednisolone alone, muscle of mdx mice): increased
- CD53 mRNA level ([8]; 0.2 mg/kg ip once/day): 1.33
- effect on the level of CD53 mRNA [8, 16]: not significantly affected
- effect on IL-6 mRNA level [9]: No effects
- % change compared to vehicle (CD11b+Ly6Clow anti-fibrotic myeloid cells) ([10]; 0.2 mg/kg ip once/day): +0.4%
- % of viable cells (CD11b+Ly6Clow anti-fibrotic myeloid cells) ([10]; 0.2 mg/kg ip once/day): 27.3%
- % change compared to vehicle (CD11b+Ly6Clow anti-fibrotic myeloid cells) ([10]; 1 mg/kg ip once/day): +0.7%
- % of viable cells (CD11b+Ly6Clow anti-fibrotic myeloid cells) ([10]; 1 mg/kg ip once/day): 27.4%
- effect on recruitment of anti-fibrotic myeloid cells compared with vehicle ([10]; both doses): no statistically significant effect
- effect on Mpeg1 mRNA level [11]: No effects
- % change compared to vehicle (CD11b+Ly6Chigh profibrotic myeloid cells) ([12]; 0.2 mg/kg ip once/day): +0.6%
- % of viable cells (CD11b+Ly6Chigh profibrotic myeloid cells) ([12]; 0.2 mg/kg ip once/day): 7.37%
- % change compared to vehicle (CD11b+Ly6Chigh profibrotic myeloid cells) ([12]; 1 mg/kg ip once/day): −38.3%
- % of viable cells (CD11b+Ly6Chigh profibrotic myeloid cells) ([12]; 1 mg/kg ip once/day): 4.52%
- effect on recruitment of profibrotic myeloid cells compared with vehicle ([12]; both doses): no statistically significant effect

Compound: C[C@@](Cc1ccc(O)c(O)c1)(NN)C(=O)O [Carbidopa]
- Lgals3 mRNA level ([1]; 50 mg/kg po twice/day): 0.66
- effect on the level of Lgals3 mRNA [1]: no significant effect
- relative levels of pro- and anti-fibrotic myeloid cells [13]: in favour of anti-fibrotic myeloid cells
- TNF mRNA level ([2]; 50 mg/kg po twice/day): 0.74
- effect on the level of TNF mRNA [2]: No significant effect
- CD11b mRNA level ([3]; 50 mg/kg po twice/day): 0.58*
- reduction of the level of CD11b mRNA [3, 17]: 42%
- % change compared to vehicle (lymphoid CD4+CD8- T cells) [14, 18]: −51.4%
- % of viable cells (lymphoid CD4+CD8- T cells) [14, 18]: 7.1** %
- reduction of recruitment of lymphoid CD4+CD8- T cells compared with vehicle [14, 19]: over 33.3%
- % change compared to vehicle (CD11b+ myeloid cells) ([4]; 50 mg/kg po twice/day): −55.2%
- % of viable cells (CD11b+ myeloid cells) ([4]; 50 mg/kg po twice/day): 16.3** %
- % change compared to vehicle (CD11b+ myeloid cells) ([4]; 100 mg/kg po twice/day): −49.2%
- % of viable cells (CD11b+ myeloid cells) ([4]; 100 mg/kg po twice/day): 18.5** %
- reduction of myeloid cell recruitment compared with vehicle ([4]; both carbidopa doses (columns 5 and 6 of FIG. 4)): approximately 50%
- CD48 mRNA level ([5]; 50 mg/kg po twice/day): 0.86
- effect on the level of CD48 mRNA [5]: no significant effect
- effect on Ly6C1 mRNA level [6]: No effects
- % change compared to vehicle (TGFβ mRNA) ([7]; 50 mg/kg po twice/day): −34.7%
- TGFβ mRNA ([7]; 50 mg/kg po twice/day): 0.79
- reduction of the TGFβ mRNA level (fraction in words) ([7]; treatment alone, muscle of mdx mice): over a third
- CD53 mRNA level ([8]; 50 mg/kg po twice/day): 0.46**
- reduction of the level of CD53 mRNA [8, 17]: 52.6%
- effect on IL-6 mRNA level [9]: No effects
- % change compared to vehicle (CD11b+Ly6Clow anti-fibrotic myeloid cells) ([10]; 50 mg/kg po twice/day): −49.3%
- % of viable cells (CD11b+Ly6Clow anti-fibrotic myeloid cells) ([10]; 50 mg/kg po twice/day): 13.8** %
- % change compared to vehicle (CD11b+Ly6Clow anti-fibrotic myeloid cells) ([10]; 100 mg/kg po twice/day): −41.2%
- % of viable cells (CD11b+Ly6Clow anti-fibrotic myeloid cells) ([10]; 100 mg/kg po twice/day): 16** %
- inhibition of recruitment of anti-fibrotic myeloid cells compared with vehicle ([10]; both carbidopa doses (columns 5, 6 of FIG. 5B)): less than 50%
- effect on Mpeg1 mRNA level [11]: No effects
- % change compared to vehicle (CD11b+Ly6Chigh profibrotic myeloid cells) ([12]; 50 mg/kg po twice/day): −86.4%
- % of viable cells (CD11b+Ly6Chigh profibrotic myeloid cells) ([12]; 50 mg/kg po twice/day): 1.75** %
- % change compared to vehicle (CD11b+Ly6Chigh profibrotic myeloid cells) ([12]; 100 mg/kg po twice/day): −82.1%
- % of viable cells (CD11b+Ly6Chigh profibrotic myeloid cells) ([12]; 100 mg/kg po twice/day): 1.31** %
- reduction of profibrotic myeloid cell recruitment compared with vehicle ([12]; at both doses tested): over 80%
- % change compared to vehicle (lymphoid CD4-CD8- DN T cells) [15, 18]: −56.4%
- % of viable cells (lymphoid CD4-CD8- DN T cells) [15, 18]: 14.2** %
- reduction of recruitment of lymphoid DN T cells compared with vehicle [15, 19]: ~50%
